Experiment [1] has as its target Glutamate receptor ionotropic, AMPA (Rattus norvegicus, UniProt P19490+P19491+P19492+P19493).
Description: Binding affinity against AMPA receptor in rat brain membrane using [3H]-AMPA as radioligand
Experiment [2] addresses Glutamate NMDA receptor. Briefly: Binding affinity of compound against NMDA receptor binding site in rat brain membrane using [3H]glutamate as radioligand. The format is cell membranes.
For experiment [3], the target named is Glutamate NMDA receptor. Briefly: Binding affinity of compound against strychnine-insensitive glycine site on NMDA receptor in rat brain membrane using [3H]glycine as radioligand. The format is cell membranes.
Experiment [4] addresses Glutamate receptor ionotropic, kainate. The experiment can be described thus: Binding affinity against kainate receptor in rat brain membrane using [3H]kainate as radioligand. The format is cell membranes.
In experiment [5] the target is T1, Glutamate receptor ionotropic, AMPA (Rattus norvegicus) (UniProt P19491+P19492+P19493+P19490). Briefly: Ability to inhibit [3H]AMPA binding to AMPA receptor in rat whole brain at 1 uM concentration.
Experiment [6] addresses T1, Glutamate receptor ionotropic, AMPA (Rattus norvegicus). Briefly: Ability to inhibit [3H]AMPA binding to AMPA receptor in rat whole brain at 100 uM concentration. In kind it is tissue-based.

Our source for the Ki and inhibition values is ChEMBL document CHEMBL1127329, “6-(1H-imidazol-1-yl)-7-nitro-2,3(1H,4H)-quinoxalinedione hydrochloride (YM90K) and related compounds: structure-activity relationships for the AMPA-type non-NMDA receptor” (J Med Chem, 1994).

Structures are written as SMILES.

`O=[N+]([O-])c1cc2nc(O)c(O)nc2cc1-n1cncn1`: in experiment [1], the Ki (in general, a measure of affinity in units of concentration, obtained from inhibition or displacement) worked out at 240 nM.

For the molecule `CCc1nccn1-c1cc2nc(O)c(O)nc2cc1[N+](=O)[O-]`, in experiment [1], the Ki was determined as 390 nM.

The molecule `N#Cc1cc2nc(O)c(O)nc2cc1-n1ccnc1` yielded a Ki in experiment [1] of 200 nM.

`Oc1nc2ccc(-n3ccnc3)cc2nc1O` returned a Ki in experiment [1] of 1600 nM.

For the molecule `NS(=O)(=O)c1cccc2c1c([N+](=O)[O-])cc1nc(O)c(O)nc12` [NBQX], the inhibitory constant (Ki) on Glutamate NMDA receptor [2] and on Glutamate NMDA receptor [3] was > 100 µM in each case.

`Cc1nccn1-c1cc2nc(O)c(O)nc2cc1[N+](=O)[O-]` returned an inhibition constant (Ki) in experiment [1] of 430 nM.

In the case of `O=[N+]([O-])c1cc2nc(O)c(O)nc2cc1-n1cnc2ccccc21`, the affinity in experiment [1], expressed as Ki, was 1300 nM.

On to `O=c1[nH]c2cc(-n3ccnc3)c([N+](=O)[O-])cc2[nH]c1=O` [YM-90K], for which the inhibitory constant (Ki) in experiment [1] is 84 nM; at Glutamate NMDA receptor [2], > 100 µM; on Glutamate NMDA receptor [3] it was 37 µM; in experiment [4], 2200 nM.

As for `O=[N+]([O-])c1cc2nc(O)c(O)nc2cc1-n1cnc2c1CCCC2`, in experiment [1], the Ki stood at 4800 nM. This lies in the single-digit micromolar range.

In turn, `O=[N+]([O-])c1cc(-n2ccnc2)cc2nc(O)c(O)nc12` returned a Ki in experiment [1] of 1900 nM.

As for `O=[N+]([O-])c1cc2nc(O)c(O)nc2cc1-n1cnc(-c2ccccc2)c1`, the inhibitory constant (Ki) in experiment [1] came to 230 nM.

In experiment [1], `O=[N+]([O-])c1ccc2nc(O)c(O)nc2c1` returned a Ki of 2000 nM. This Ki is about 8.7-fold higher than that of the molecule before.

`O=[N+]([O-])c1cn(-c2cc3nc(O)c(O)nc3cc2[N+](=O)[O-])cn1` had a Ki in experiment [1] of 100 nM.

As to `Cc1cc2nc(O)c(O)nc2cc1-n1ccnc1`, the inhibition – broadly, the relative decrease from the control value, in per cent – in experiment [5] amounted to 14%.

For `Nc1cc2nc(O)c(O)nc2cc1-n1ccnc1`, the inhibition in experiment [5] came out at 16%.

`Oc1nc2cc(F)c(-n3ccnc3)cc2nc1O` yielded an inhibition in experiment [5] of 14%.

`O=[N+]([O-])c1cc2nc(O)c(O)nc2cc1-c1c[nH]cn1` displayed an inhibition constant Ki in experiment [1] of 690 nM.

Consider `Oc1nc2cc(-n3ccnc3)c(-n3ccnc3)cc2nc1O`, for which, in experiment [1], the affinity corresponds to a Ki of 820 nM. This Ki and that of the molecule before are within 1.5-fold of each other.

On to `N#Cc1cc2c(cc1[N+](=O)[O-])=NC(=O)C(=O)N=2`, for which the Ki turned out to be 25 µM at Glutamate NMDA receptor [2], 5.6 µM on Glutamate NMDA receptor [3] and 1800 nM in experiment [4].

`Cc1ccc2nc(O)c(O)nc2c1` gave an inhibition in experiment [6] of 28%.

As to `O=[N+]([O-])c1cc2nc(O)c(O)nc2cc1-c1cccnc1`, the affinity in experiment [1] corresponds to a Ki of 620 nM. In other words, the sub-micromolar range.

In experiment [1], `Oc1nc2cc(-n3ccnc3)c(C(F)(F)F)cc2nc1O` displayed a Ki of 200 nM.

With `Cc1cn(-c2cc3nc(O)c(O)nc3cc2[N+](=O)[O-])cn1`, in experiment [1], the affinity, expressed as Ki, was 180 nM.

`Oc1nc2ccccc2nc1O` came in with an inhibition in experiment [6] of 24%.

Turning to `Oc1nc2ccc(-n3ccnc3)c(C(F)(F)F)c2nc1O`, the inhibition in experiment [5] came out at 10%.

As to `O=[N+]([O-])c1cc2nc(O)c(O)nc2cc1-n1cccn1`, the Ki in experiment [1] was found to be 1400 nM. This lies in the single-digit micromolar range.

`N#Cc1ccc2nc(O)c(O)nc2c1` displayed a Ki in experiment [1] of 5000 nM.

Take `CC(=O)c1cc2nc(O)c(O)nc2cc1-n1ccnc1`: the inhibition in experiment [5] stood at 36%.
